The values that follow come from patent US20260232603A1, “A METHOD OF PREPARING AN AQUEOUS DISPERSION OF NANOPARTICLES” (IQ MEDICAL GMBH, priority 2023, published 2026).

SMILES strings stand for the structures. In brackets after ≈: the same amount, converted by molar mass. Where two headings read alike, the source gives them in different places. Where only a bound is given, the exact number is not on record here.

The conditions of data set [1]: cited from earlier work.
The conditions of data set [2]: Table 8, cited from earlier work; for pKa: first value where several are printed.
Data set [3] in a line: Pharmacokinetics of tacrolimus encapsulated in E100, sublingual cross-over, rats (2022NCM003). The format is in vivo, Sprague Dawley rats. As to conditions: 5 mg per kg. The protocol: The pharmacokinetic profile of three different nanoparticular formulations of Tacrolimus after sublingual administration in five naïve male Sprague Dawley rats with 14 days wash-out interval was evaluated. To eliminate the inter-individual variability, the same animals were administered in an intra-individual three-way cross-over after washout period. The animals were housed in a separate temperature-controlled room (20-24° C.) and maintained in a 12 h light/12 h dark cycle. Food and water were available ad libitum throughout the duration of the study.
Formulations were freshly prepared on the day of application using the procedure described herein and administered freshly after arrival.
Dose (and applied volume of the nanosuspension) was adjusted individually to the body weight of the animal.
Test item formulations were administered sublingual to 5 animals with […] wash-out intervals at a dose of 5 mg per kg body weight. Application procedure and blood sampling was as described before.
Tacrolimus whole blood concentrations were analysed by LC-MS/MS and Cmax, tmax, and AUC were calculated.
Preparation of working solutions for calibration standards and quality controls Individual stock solutions were used for preparation of calibration standards and quality control samples (QCs).
All samples were kept on ice until the addition of the precipitation reagent. […]

A short description of data set [4]: Saturation solubility of sirolimus in selected solvents. Conditions: thermodynamic from solid, room temperature, HPLC of supernatant. The format is physicochemical. The protocol:
One task is the production of a highly concentrated dispersion. The prerequisite for this is the use of a solvent for the production of the dispersion in which the active substance has a high solubility. […] Crystalline active ingredient was added to a defined amount of solvent at room temperature while stirring until an insoluble sediment was formed.

A short description of data set [5]: Pharmacokinetics of two sirolimus E100 nanoformulations, sublingual cross-over, rats (2022NCM002). It is filed as in vivo. Conditions: two nanoparticular formulations (FLM04_025, FLM02_b230). The protocol: To eliminate the inter-individual variability, the same animals were administered in an intra-individual two-way cross-over after an appropriate washout period.
Two different approaches were followed in that a surfactant was included either during precipitation (FLM04_025) or after precipitation (FLM02_b230) as shown in FIG. 32.
Formulations were freshly prepared on the day of application using the procedure as described herein.
Test item formulations were administered sublingual to animals with 7 days wash-out intervals at a […] per kg body weight. Application procedure, blood sampling and their as quantification was as described before.

A short description of data set [6]: Pharmacokinetics of sirolimus encapsulated in E100, sublingual, rats (2022NCM001). Conditions: 5 mg per kg. It is filed as in vivo, Sprague Dawley rats. The protocol:
Naïve, adult male Sprague Dawley rats of around 300 g body weight were housed in a separate temperature-controlled room (20-24° C.) and maintained in a 12 h light/12 h dark cycle. Food and water were available ad libitum throughout the duration of the study.
Formulation was freshly prepared on the day of application. It was administered sublingually to each animal at a dose of 5 mg per kg body weight.
For sublingual administration, rats were shortly anaesthetized with isoflurane. Prior to application, the sublingual area was blotted dry with cotton swabs. The appropriate volume of the formulation was applied under the tongue with a pipette. The animals were kept in a sitting position for 5 minutes. After 5 minutes the area under the tongue was blotted dry again to avoid oral administration of the remaining suspension. Then the animals were placed into the cage until recovery.
Blood samples were collected by puncture of the lateral tail vein at the following time points: predose, 15 min, 30 min, 1 h, 2 h, 4 h, 8 h and 24 h post dose. At each of the designated time points 20 μl blood was collected from the tail vein into K3-EDTA capillaries (Minivette POCT, […]). The blood samples were transferred into polypropylene tubes and frozen on dry ice within 1-2 min. of sampling and stored at −20° C. until LC-MS analysis. […]

Setting [7] is: nanoparticular dispersion based on Eudragit E100, rats.

As usually defined, the Log P is the decadic logarithm of the partition coefficient of the neutral form, usually between octanol and water. Turning to `CCC(C)n1ncn(-c2ccc(N3CCN(c4ccc(OCC5COC(Cn6cncn6)(c6ccc(Cl)cc6Cl)O5)cc4)CC3)cc2)c1=O` (stereo not drawn) [Itraconazole], in data set [1], the lipophilicity (Log P) is recorded as 5.66 and the Water solubility was 0.0096 mg/mL.

For orientation: pKa means the negative logarithm of the acid dissociation constant. With `O=C(O)CC(O)C(=O)O` (stereo not drawn) [Malic acid], in data set [2], the Water solubility was 218 mg/mL and the pKa was 3.2.

Regarding `CCCCCCCC(=O)O` [Octanoic Acid], the pKa in data set [2] is listed as 5.19.

Take `CCCCCCCC/C=C\CCCCCCCC(=O)O` [Oleic Acid]: the Water solubility in data set [2] is 0.0001 mg/mL.

As to `CCCCCCCCCCCCCCCCCC(=O)O` [Stearic Acid], in data set [2], the pKa is given as 4.95.

Take `C=CC[C@@H]1/C=C(\C)C[C@H](C)C[C@H](OC)[C@H]2O[C@@](O)(C(=O)C(=O)N3CCCC[C@H]3C(=O)O[C@H](/C(C)=C/[C@@H]3CC[C@@H](O)[C@H](OC)C3)[C@H](C)[C@@H](O)CC1=O)[C@H](C)C[C@@H]2OC` [Tacrolimus]: the “detection in blood after sublingual administration” value in data set [3] (setting [7]) is reported as “detected in the blood of all rats”. Also, in data set [3] (nanoparticular dispersion based on Eudragit E100, whole blood, rats), the “time of maximum concentration (t_max)” value came out at 30 min. In data set [1], the “Log P” value is reported as 4.5.

For `CCCCC(=O)O` [Valeric acid], in data set [2], the Water solubility is 40 mg/mL and the pKa was 5.01.

What is called solubility is the dissolved amount per volume that the medium holds. `CO[C@H]1C[C@@H]2CC[C@@H](C)[C@@](O)(O2)C(=O)C(=O)N2CCCC[C@H]2C(=O)O[C@H]([C@H](C)C[C@@H]2CC[C@@H](O)[C@H](OC)C2)CC(=O)[C@H](C)/C=C(\C)[C@@H](O)[C@@H](OC)C(=O)[C@H](C)C[C@H](C)/C=C/C=C/C=C/1C` [sirolimus]: the solubility in data set [4] (acetone, organic solvent or mixture, saturation solubility in Acetone (polar aprotic)) was ≥ 200 mg/mL; in data set [4] (ethanol, organic solvent or mixture, saturation solubility in Ethanol (polar protic)), 179 mg/mL (≈ 196 mM); in data set [4] (iso-propanol, organic solvent or mixture, saturation solubility in iso-Propanol (polar protic)), 25 mg/mL (≈ 27.3 mM); in data set [4] (methanol, organic solvent or mixture, saturation solubility in Methanol (polar protic)), 246 mg/mL (≈ 269 mM); in data set [4] (water, saturation solubility in Water (polar protic)), ~0.001 mg/mL (≈ 0.00109 mM). Besides, the “Log P” value in data set [1] was 4.56. The “detection in blood after sublingual administration” value in data set [5] and in data set [6] (setting [7]) was “detected in the blood of all rats” in each case. Also, the “time of maximum concentration (t_max)” value in data set [6] (5 min application, nanoparticular dispersion based on Eudragit E100, blood, rats) was found to be 30 min.
